Test results published in the supplement of paper PMC11451515.

Columns and labels:
Conditions in all cases: 48 h
SEM cells [1] = assay: AUC of viability dose-response curve (% viability x log10 dose units); higher = less sensitive
Procedure, shortened: (§1)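 Seeding of medium-adapted leukemia cells was at 500 or 1000 cells/well in 1536-well plates, followed by 48 h at 37°C with library compounds in DMSO at 11 threefold doses from 47 μM to 0.79 nM. CellTiter-Glo One luminescence was normalised per plate to DMSO and cell-free wells and fitted as a four-parameter log-logistic function of log10 dose. Area under the curve was integrated by trapezoidal rule, with curves exceeding full viability scaled and curves failing quality control removed.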

P12-Ichikawa [2] = assay: as above
Procedure, shortened: as §1

NOMO1 [3] = assay: as above
Procedure, shortened: as §1

SEM cells [4] = assay: cell viability relative to DMSO control; higher = less cytotoxic
Procedure, shortened: (§2)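 Viability values are per-plate percentages of DMSO wells, with background from cell-free wells. Library compounds in DMSO were pin-dosed, in an 11-point threefold series from 47 μM to 0.79 nM, onto NOMO1 or SEM (500 cells/well) or P12-Ichikawa (1000 cells/well) leukemia cells in 1536-well plates (5 μl). Those cells had been adapted for at least four passages in each medium, and CellTiter-Glo One luminescence was read after 48 h at 37°C.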

P12-Ichikawa [5] = assay: as above
Procedure, shortened: as §2

NOMO1 [6] = assay: as above
Procedure, shortened: as §2

CC1=CC=C2N=C(NC(=O)CS\C3=N\C4=C(\SCC4)C(=O)N3C5=CC=CC=C5)SC2=C1
AUC of viability dose-response curve
Conditions | HPLM + 10% dialyzed FBS | RPMI 5 mM glucose + 10% FBS | RPMI 5 mM glucose + 10% dialyzed FBS
P12-Ichikawa [2] | 444 | 430 | 435
SEM cells [1] | 424 | 421 | 446

Cl.Cl.Clc1ccc(Nc2nnc(Cc3ccncc3)c3ccccc23)cc1
AUC of viability dose-response curve
Conditions | NOMO1 [3] | P12-Ichikawa [2] | SEM cells [1]
HPLM + 10% dialyzed FBS | 448 | 442 | 449
RPMI 5 mM glucose + 10% FBS | 469 | 472 | 446
RPMI 5 mM glucose + 10% dialyzed FBS | 460 | 446 | 357

CC(C)OC(=O)C(C)(C)Oc1ccc(C(=O)c2ccc(Cl)cc2)cc1
AUC of viability dose-response curve
Conditions | NOMO1 [3] | P12-Ichikawa [2] | SEM cells [1]
HPLM + 10% dialyzed FBS | 469 | 447 | 446
RPMI 5 mM glucose + 10% FBS | 459 | 446 | 423
RPMI 5 mM glucose + 10% dialyzed FBS | 466 | 464 | 442

COc1ccc(C(CN(C)C)C2(O)CCCCC2)cc1 (centres undefined)
cell viability [%]
Conditions | NOMO1 [6] | P12-Ichikawa [5] | SEM cells [4]
HPLM + 10% dialyzed FBS, 0.000781 µM | 101 | 111 | 83.7
HPLM + 10% dialyzed FBS, 0.00234 µM | 125 | 106 | 134
HPLM + 10% dialyzed FBS, 0.00702 µM | 124 | 108 | 106
HPLM + 10% dialyzed FBS, 0.0211 µM | 125 | 107 | 134
HPLM + 10% dialyzed FBS, 0.0632 µM | 115 | 115 | 124
HPLM + 10% dialyzed FBS, 0.19 µM | 127 | 114 | 118
HPLM + 10% dialyzed FBS, 0.569 µM | 120 | 95.3 | 106
HPLM + 10% dialyzed FBS, 1.71 µM | 104 | 96.5 | 107
HPLM + 10% dialyzed FBS, 5.12 µM | 124 | 106 | 117
HPLM + 10% dialyzed FBS, 15.4 µM | 94.5 | 98.2 | 116
HPLM + 10% dialyzed FBS, 46.1 µM | 95.3 | 108 | 104
RPMI 5 mM glucose + 10% FBS, 0.000781 µM | 44.9 | 116 | 78.5
RPMI 5 mM glucose + 10% FBS, 0.00234 µM | 118 | 115 | 132
RPMI 5 mM glucose + 10% FBS, 0.00702 µM | 122 | 134 | 122
RPMI 5 mM glucose + 10% FBS, 0.0211 µM | 118 | 151 | 110
RPMI 5 mM glucose + 10% FBS, 0.0632 µM | 113 | 120 | 124
RPMI 5 mM glucose + 10% FBS, 0.19 µM | 120 | 91.1 | 125
RPMI 5 mM glucose + 10% FBS, 0.569 µM | 104 | 81.8 | 103
RPMI 5 mM glucose + 10% FBS, 1.71 µM | 104 | 97 | 112
RPMI 5 mM glucose + 10% FBS, 5.12 µM | 107 | 106 | 119
RPMI 5 mM glucose + 10% FBS, 15.4 µM | 97.2 | 85.7 | 120
RPMI 5 mM glucose + 10% FBS, 46.1 µM | 109 | 109 | 95.9
RPMI 5 mM glucose + 10% dialyzed FBS, 0.000781 µM | 46.1 | 98.4 | 64.9
RPMI 5 mM glucose + 10% dialyzed FBS, 0.00234 µM | 111 | 111 | 120
RPMI 5 mM glucose + 10% dialyzed FBS, 0.00702 µM | 111 | 109 | 122
RPMI 5 mM glucose + 10% dialyzed FBS, 0.0211 µM | 117 | 103 | 134
RPMI 5 mM glucose + 10% dialyzed FBS, 0.0632 µM | 105 | 120 | 163
RPMI 5 mM glucose + 10% dialyzed FBS, 0.19 µM | 104 | 106 | 138
RPMI 5 mM glucose + 10% dialyzed FBS, 0.569 µM | 96.4 | 105 | 115
RPMI 5 mM glucose + 10% dialyzed FBS, 1.71 µM | 109 | 106 | 122
RPMI 5 mM glucose + 10% dialyzed FBS, 5.12 µM | 97.9 | 101 | 148
RPMI 5 mM glucose + 10% dialyzed FBS, 15.4 µM | 111 | 91.5 | 118
RPMI 5 mM glucose + 10% dialyzed FBS, 46.1 µM | 100 | 97.1 | 135

AUC of viability dose-response curve
Conditions | HPLM + 10% dialyzed FBS | RPMI 5 mM glucose + 10% FBS | RPMI 5 mM glucose + 10% dialyzed FBS
P12-Ichikawa [2] | 459 | 405 | 461
SEM cells [1] | 476 | 475 | 424
